Measured values reported in the NIST ThermoML archive (doi:10.1016/j.fluid.2004.09.013).

Conditions: for mass density: Fluid (supercritical or subcritical phases), Vibrating tube method; for vapor or sublimation pressure: Liquid

C=CCC [1-butene]
Conditions | mass density [kg/m3]
273.24 K, 612 kPa | 619.16
273.24 K, 4987 kPa | 624.98
273.24 K, 9990 kPa | 631.06
273.24 K, 15004 kPa | 636.64
273.24 K, 20005 kPa | 641.81
273.24 K, 24989 kPa | 646.61
273.24 K, 29996 kPa | 651.13
273.24 K, 34991 kPa | 655.38
273.24 K, 39998 kPa | 659.41
278.25 K, 610 kPa | 613.23
278.25 K, 4982 kPa | 619.35
278.25 K, 9991 kPa | 625.73
278.25 K, 14984 kPa | 631.55
278.25 K, 20001 kPa | 636.92
278.25 K, 24985 kPa | 641.91
278.25 K, 30007 kPa | 646.61
278.25 K, 34997 kPa | 650.99
278.25 K, 39995 kPa | 655.14
283.26 K, 610 kPa | 607.22
283.26 K, 4984 kPa | 613.69
283.26 K, 9995 kPa | 620.39
283.26 K, 15000 kPa | 626.47
283.26 K, 19989 kPa | 632.05
283.26 K, 24987 kPa | 637.22
283.26 K, 30013 kPa | 642.08
283.26 K, 35003 kPa | 646.62
283.26 K, 39990 kPa | 650.88
288.27 K, 611 kPa | 601.14
288.27 K, 14998 kPa | 621.36
288.28 K, 4990 kPa | 607.98
288.28 K, 9997 kPa | 615.01
288.28 K, 19990 kPa | 627.16
288.28 K, 24993 kPa | 632.55
288.28 K, 30009 kPa | 637.56
288.28 K, 35002 kPa | 642.25
288.28 K, 39995 kPa | 646.65
293.29 K, 611 kPa | 594.95
293.29 K, 4994 kPa | 602.2
293.29 K, 9995 kPa | 609.58
293.29 K, 14989 kPa | 616.2
293.29 K, 19984 kPa | 622.26
293.29 K, 24990 kPa | 627.84
293.29 K, 29991 kPa | 633.02
293.29 K, 34994 kPa | 637.87
293.29 K, 39994 kPa | 642.42
298.3 K, 613 kPa | 588.66
298.3 K, 4990 kPa | 596.33
298.3 K, 10001 kPa | 604.11
298.3 K, 14994 kPa | 611.04
298.3 K, 19995 kPa | 617.35
298.3 K, 24993 kPa | 623.14
298.3 K, 30005 kPa | 628.51
298.3 K, 35015 kPa | 633.51
298.3 K, 40003 kPa | 638.19
303.31 K, 661 kPa | 582.33
303.31 K, 9983 kPa | 598.56
303.31 K, 15001 kPa | 605.85
303.31 K, 19987 kPa | 612.4
303.31 K, 24994 kPa | 618.42
303.31 K, 30008 kPa | 623.99
303.31 K, 35004 kPa | 629.15
303.32 K, 4995 kPa | 590.39
303.32 K, 40006 kPa | 633.97
308.32 K, 4985 kPa | 584.34
308.32 K, 9991 kPa | 592.99
308.32 K, 14996 kPa | 600.61
308.32 K, 19992 kPa | 607.46
308.32 K, 25004 kPa | 613.71
308.32 K, 30007 kPa | 619.45
308.32 K, 34999 kPa | 624.79
308.32 K, 40000 kPa | 629.76
308.33 K, 713 kPa | 575.87
313.2 K, 947 kPa | 569.83
313.2 K, 4992 kPa | 578.34
313.2 K, 9990 kPa | 587.43
313.2 K, 14997 kPa | 595.4
313.2 K, 19994 kPa | 602.53
313.2 K, 24994 kPa | 609.01
313.2 K, 30011 kPa | 614.95
313.2 K, 35009 kPa | 620.44
313.2 K, 39997 kPa | 625.59
318.21 K, 1037 kPa | 563.26
318.21 K, 5017 kPa | 572.17
318.21 K, 10015 kPa | 581.78
318.21 K, 15007 kPa | 590.11
318.21 K, 20018 kPa | 597.56
318.21 K, 25018 kPa | 604.28
318.21 K, 30002 kPa | 610.4
318.21 K, 35001 kPa | 616.07
318.21 K, 39996 kPa | 621.35
323.21 K, 1110 kPa | 556.48
323.21 K, 9982 kPa | 575.95
323.21 K, 14984 kPa | 584.73
323.21 K, 25001 kPa | 599.51
323.21 K, 30001 kPa | 605.88
323.21 K, 34994 kPa | 611.74
323.21 K, 40004 kPa | 617.19
323.22 K, 5006 kPa | 565.82
323.22 K, 19997 kPa | 592.52
328.22 K, 1187 kPa | 549.53
328.22 K, 4989 kPa | 559.32
328.22 K, 9998 kPa | 570.14
328.22 K, 14996 kPa | 579.36
328.22 K, 19992 kPa | 587.47
328.22 K, 25011 kPa | 594.75
328.22 K, 30003 kPa | 601.33
328.22 K, 34986 kPa | 607.37
328.22 K, 40001 kPa | 613
333.22 K, 1276 kPa | 542.42
333.22 K, 4994 kPa | 552.72
333.22 K, 10001 kPa | 564.22
333.22 K, 14993 kPa | 573.92
333.22 K, 20000 kPa | 582.4
333.22 K, 24986 kPa | 589.92
333.22 K, 29987 kPa | 596.76
333.22 K, 35007 kPa | 603.04
333.22 K, 40005 kPa | 608.82
338.22 K, 1372 kPa | 535.11
338.22 K, 4996 kPa | 545.96
338.22 K, 9985 kPa | 558.18
338.22 K, 14991 kPa | 568.42
338.22 K, 19988 kPa | 577.27
338.22 K, 25002 kPa | 585.14
338.22 K, 29995 kPa | 592.2
338.22 K, 34993 kPa | 598.67
338.22 K, 39988 kPa | 604.63
343.22 K, 1477 kPa | 527.59
343.22 K, 4989 kPa | 538.99
343.22 K, 9987 kPa | 552.06
343.22 K, 14985 kPa | 562.84
343.22 K, 19995 kPa | 572.12
343.22 K, 24993 kPa | 580.29
343.22 K, 29995 kPa | 587.63
343.22 K, 34993 kPa | 594.3
343.22 K, 39996 kPa | 600.44
348.22 K, 9989 kPa | 545.85
348.22 K, 24986 kPa | 575.42
348.23 K, 1592 kPa | 519.85
348.23 K, 4984 kPa | 531.84
348.23 K, 14988 kPa | 557.22
348.23 K, 20000 kPa | 566.94
348.23 K, 29995 kPa | 583.02
348.23 K, 35000 kPa | 589.94
348.23 K, 39996 kPa | 596.25
353.23 K, 1715 kPa | 511.85
353.23 K, 4999 kPa | 524.53
353.23 K, 9991 kPa | 539.5
353.23 K, 14992 kPa | 551.53
353.23 K, 19991 kPa | 561.68
353.23 K, 24984 kPa | 570.52
353.23 K, 30003 kPa | 578.41
353.23 K, 34996 kPa | 585.54
353.23 K, 40004 kPa | 592.05
358.23 K, 1846 kPa | 503.54
358.23 K, 4995 kPa | 516.91
358.23 K, 9989 kPa | 533.03
358.23 K, 14984 kPa | 545.76
358.23 K, 19997 kPa | 556.43
358.23 K, 25002 kPa | 565.63
358.23 K, 30007 kPa | 573.81
358.23 K, 34991 kPa | 581.14
358.23 K, 39997 kPa | 587.85
363.23 K, 1991 kPa | 494.93
363.23 K, 4996 kPa | 509.02
363.23 K, 9987 kPa | 526.43
363.23 K, 14995 kPa | 539.91
363.23 K, 19993 kPa | 551.05
363.23 K, 24987 kPa | 560.63
363.23 K, 29994 kPa | 569.1
363.23 K, 35013 kPa | 576.7
363.23 K, 39993 kPa | 583.59
368.23 K, 2145 kPa | 485.95
368.23 K, 4994 kPa | 500.81
368.23 K, 10001 kPa | 519.71
368.23 K, 15000 kPa | 534.01
368.23 K, 19992 kPa | 545.69
368.23 K, 24989 kPa | 555.66
368.23 K, 29994 kPa | 564.43
368.23 K, 34993 kPa | 572.27
368.23 K, 39995 kPa | 579.38
373.23 K, 2313 kPa | 476.57
373.23 K, 10000 kPa | 512.83
373.23 K, 19991 kPa | 540.27
373.23 K, 24984 kPa | 550.66
373.23 K, 30002 kPa | 559.76
373.23 K, 35005 kPa | 567.88
373.23 K, 39997 kPa | 575.19
373.24 K, 5000 kPa | 492.29
373.24 K, 15001 kPa | 528.02
378.23 K, 4992 kPa | 483.29
378.23 K, 40004 kPa | 571.03
378.24 K, 2492 kPa | 466.71
378.24 K, 9989 kPa | 505.75
378.24 K, 14998 kPa | 521.94
378.24 K, 20001 kPa | 534.83
378.24 K, 24999 kPa | 545.69
378.24 K, 30000 kPa | 555.11
378.24 K, 35012 kPa | 563.49
383.24 K, 2679 kPa | 456.23
383.24 K, 5001 kPa | 473.89
383.24 K, 9994 kPa | 498.55
383.24 K, 14998 kPa | 515.79
383.24 K, 19999 kPa | 529.35
383.24 K, 24986 kPa | 540.63
383.24 K, 29986 kPa | 550.4
383.24 K, 34993 kPa | 559.06
383.24 K, 39986 kPa | 566.81
388.24 K, 2883 kPa | 445.15
388.24 K, 4993 kPa | 463.82
388.24 K, 9989 kPa | 491.12
388.24 K, 14987 kPa | 509.52
388.24 K, 20000 kPa | 523.81
388.24 K, 24990 kPa | 535.58
388.24 K, 29995 kPa | 545.72

Conditions | vapor or sublimation pressure [kPa]
289.42 K | 225.85
294 K | 260.86
301.73 K | 329.59
306.48 K | 378.14
315.34 K | 484.39
321.69 K | 572.17
329.51 K | 695.71
337.04 K | 833.9
337.68 K | 845.55
345.48 K | 1009.7
353.71 K | 1207.9
358.53 K | 1337.5
361.4 K | 1416.5
366.99 K | 1590.4
367.1 K | 1594.8
379.44 K | 2014.2
386.99 K | 2310.4
